The text below walks through data of US9796711B2, “Substituted pyrazolo[3,4-b]pyridin-6-carboxylic acids and method of use” (AbbVie S.àr.l., priority 2015, dated 2017).

For the assay, the target named is T1, ΔF508-CFTR (Homo sapiens, UniProt P13569, DEL508-508).
T1 construct: host or cells: CFBE41o-, doxycycline-inducible
Kind of assay: CFTR cell surface levels using HRP-tagged ΔF508-CFTR expressing CFBE cells, in the presence of a co-corrector. Type of assay: cell-based. The note with it: HRP-tagged ΔF508-CFTR expressing CFBE cells, in the presence of 3 μM co-corrector; for EC50: read-out: EC50. Put shortly: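 Cells were seeded with 0.5 μg/mL doxycycline and held 68 h at 37 °C. Test compounds plus 3 μM co-corrector (final 0.1% DMSO) were then added for 20 h at 33 °C. Washed cells received HRP substrate, and luminescence was normalized between DMSO and 3 μM co-corrector controls.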

T1 sequence (P13569 with tags, fused parts or gaps DEL508-508): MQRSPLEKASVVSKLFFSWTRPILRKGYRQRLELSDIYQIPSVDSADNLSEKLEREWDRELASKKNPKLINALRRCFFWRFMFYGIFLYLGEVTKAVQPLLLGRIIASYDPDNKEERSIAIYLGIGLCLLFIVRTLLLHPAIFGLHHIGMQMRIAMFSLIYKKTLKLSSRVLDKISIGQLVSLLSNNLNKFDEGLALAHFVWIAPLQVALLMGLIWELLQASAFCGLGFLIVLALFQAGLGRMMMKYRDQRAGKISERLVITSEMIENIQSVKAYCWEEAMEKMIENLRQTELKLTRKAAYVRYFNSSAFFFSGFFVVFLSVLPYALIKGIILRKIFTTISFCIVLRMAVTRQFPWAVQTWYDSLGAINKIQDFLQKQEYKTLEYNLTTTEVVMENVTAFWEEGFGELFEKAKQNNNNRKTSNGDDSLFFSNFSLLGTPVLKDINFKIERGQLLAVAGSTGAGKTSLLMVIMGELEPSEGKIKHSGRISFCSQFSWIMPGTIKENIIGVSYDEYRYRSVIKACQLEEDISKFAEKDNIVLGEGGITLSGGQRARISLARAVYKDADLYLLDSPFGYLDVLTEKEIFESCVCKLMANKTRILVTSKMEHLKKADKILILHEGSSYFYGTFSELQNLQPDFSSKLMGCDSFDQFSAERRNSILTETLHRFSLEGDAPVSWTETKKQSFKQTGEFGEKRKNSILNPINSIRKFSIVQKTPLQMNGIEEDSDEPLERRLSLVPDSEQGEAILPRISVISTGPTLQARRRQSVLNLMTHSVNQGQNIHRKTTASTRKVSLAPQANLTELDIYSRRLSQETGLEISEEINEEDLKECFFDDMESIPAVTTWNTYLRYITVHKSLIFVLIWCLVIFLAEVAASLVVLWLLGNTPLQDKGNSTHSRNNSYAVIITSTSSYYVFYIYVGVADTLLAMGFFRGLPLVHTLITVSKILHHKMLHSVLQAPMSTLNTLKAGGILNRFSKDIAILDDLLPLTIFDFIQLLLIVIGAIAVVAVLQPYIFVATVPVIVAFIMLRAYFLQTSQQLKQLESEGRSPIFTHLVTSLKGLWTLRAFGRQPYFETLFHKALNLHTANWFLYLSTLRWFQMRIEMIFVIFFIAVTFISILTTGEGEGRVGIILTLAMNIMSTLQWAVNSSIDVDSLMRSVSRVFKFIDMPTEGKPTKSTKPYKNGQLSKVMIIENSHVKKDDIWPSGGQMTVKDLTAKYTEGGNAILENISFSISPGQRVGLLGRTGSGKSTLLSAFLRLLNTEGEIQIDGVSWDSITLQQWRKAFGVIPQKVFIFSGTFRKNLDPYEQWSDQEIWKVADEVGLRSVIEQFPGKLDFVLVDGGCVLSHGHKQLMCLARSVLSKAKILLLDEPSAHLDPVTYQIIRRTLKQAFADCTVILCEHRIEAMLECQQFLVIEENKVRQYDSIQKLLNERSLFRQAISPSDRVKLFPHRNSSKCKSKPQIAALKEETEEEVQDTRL

In general, EC50 refers to the concentration that produces a half-maximal response. In the case of `CCN(C1CCN(c2cc(C(=O)O)nc3c2c(C2CCC2)nn3-c2ccccc2)CC1)C1COC1` [compound 734, 3-cyclobutyl-4-{4-[ethyl(oxetan-3-yl)amino]piperidin-1-yl}-1-phenyl-1H-pyrazolo[3,4-b]pyridine-6-carboxylic acid], the “% Activation” value is 415% and the half-maximal effective concentration (EC50) was 0.244 µM.
Regarding `CC(C)c1nn(-c2ccc(F)cc2)c2nc(C(=O)O)cc(N3CC(N4CCC(N5CCOCC5)CC4)C3)c12` [compound 759, 1-(4-fluorophenyl)-4-{3-[4-(morpholin-4-yl)piperidin-1-yl]azetidin-1-yl}-3-(propan-2-yl)-1H-pyrazolo[3,4-b]pyridine-6-carboxylic acid], the “% Activation” value was determined as 207% and the EC50 was found to be 1.67 µM.
For `CN1CCN(C(=O)C2CCN(c3cc(C(=O)O)nc4c3c(C3CCC3)nn4-c3ccccc3)CC2)CC1` [compound 739, 3-cyclobutyl-4-[4-(4-methylpiperazine-1-carbonyl)piperidin-1-yl]-1-phenyl-1H-pyrazolo[3,4-b]pyridine-6-carboxylic acid] the same measures were 327.2% and 1.67 µM.
On to `CC(C)c1nn(-c2ccc(F)cc2)c2nc(C(=O)O)cc(N3CCC(N4CCOCC4)CC3)c12` [compound 756, 1-(4-fluorophenyl)-4-[4-(morpholin-4-yl)piperidin-1-yl]-3-(propan-2-yl)-1H-pyrazolo[3,4-b]pyridine-6-carboxylic acid], for which the “% Activation” value is 446% and the concentration for a half-maximal effect (EC50) stood at 0.401 µM.
With `CNC(=O)CN1CCN(c2cc(C(=O)O)nc3c2c(C2CCC2)nn3-c2ccccc2)CC1` [compound 569, 3-cyclobutyl-4-{4-[2-(methylamino)-2-oxoethyl]piperazin-1-yl}-1-phenyl-1H-pyrazolo[3,4-b]pyridine-6-carboxylic acid], the “% Activation” value is on record as 259.37% and the EC50 was found to be 3.06 µM.
For `O=C(O)c1cc(N2CCN3CCC[C@@H]3C2)c2c(C3CCC3)nn(-c3ccccc3)c2n1` [compound 721, 3-cyclobutyl-4-[(8aR)-hexahydropyrrolo[1,2-a]pyrazin-2(1H)-yl]-1-phenyl-1H-pyrazolo[3,4-b]pyridine-6-carboxylic acid] the same measures were 302.1% and 0.51 µM.
For `CCCN1CCCN(c2cc(C(=O)O)nc3c2c(C2CCC2)nn3-c2ccccc2)CC1` [compound 712, 3-cyclobutyl-1-phenyl-4-(4-propyl-1,4-diazepan-1-yl)-1H-pyrazolo[3,4-b]pyridine-6-carboxylic acid] the same measures were 242.9% and 0.608 µM.
Turning to `O=C(O)c1cc(N2CCC(CN3CCCC3)CC2)c2c(C3CCC3)nn(-c3ccc(F)cc3)c2n1` [compound 888, 3-cyclobutyl-1-(4-fluorophenyl)-4-{4-[(pyrrolidin-1-yl)methyl]piperidin-1-yl}-1H-pyrazolo[3,4-b]pyridine-6-carboxylic acid], the “% Activation” value is on record as 430% and the EC50 turned out to be 0.333 µM.
Take `Cc1nn(C2CCCCC2)c2nc(C(=O)O)cc(-c3ccc(N4CCOCC4)cc3)c12` [compound 17, 1-cyclohexyl-3-methyl-4-[4-(morpholin-4-yl)phenyl]-1H-pyrazolo[3,4-b]pyridine-6-carboxylic acid]: the “% Activation” value is 272.5% and the 50% effective concentration (EC50) worked out at 1.14 µM.
For `O=C(O)c1cc(N2CCCN(CC3CCCO3)CC2)c2c(C3CCC3)nn(-c3ccccc3)c2n1` (stereo not shown) [compound 572, 3-cyclobutyl-4-{4-[(oxolan-2-yl)methyl]-1,4-diazepan-1-yl}-1-phenyl-1H-pyrazolo[3,4-b]pyridine-6-carboxylic acid] the same measures were 330.8% and 1.19 µM.
As for `CCN(C1CCN(c2cc(C(=O)O)nc3c2c(C(C)C)nn3-c2ccc(F)cc2)CC1)C1COC1` [compound 750, 4-{4-[ethyl(oxetan-3-yl)amino]piperidin-1-yl}-1-(4-fluorophenyl)-3-(propan-2-yl)-1H-pyrazolo[3,4-b]pyridine-6-carboxylic acid], the “% Activation” value is 394.1% and the 50% effective concentration (EC50) was 0.503 µM.
The matching figures for `O=C(O)c1cc(N2CC(N3CCOCC3)C2)c2c(C3CCC3)nn(-c3ccccc3)c2n1` [compound 709, 3-cyclobutyl-4-[3-(morpholin-4-yl)azetidin-1-yl]-1-phenyl-1H-pyrazolo[3,4-b]pyridine-6-carboxylic acid]: 223.9% and 1.67 µM.
The matching figures for `CC(C)c1nn(-c2ccc(F)cc2)c2nc(C(=O)O)cc(OCCCN3CCOCC3)c12` [compound 607, 1-(4-fluorophenyl)-4-[3-(morpholin-4-yl)propoxy]-3-(propan-2-yl)-1H-pyrazolo[3,4-b]pyridine-6-carboxylic acid]: 305.5% and 1.98 µM.
For the compound `CC1(c2nn(-c3ccccc3)c3nc(C(=O)O)cc(-c4ccc(N5CCOCC5)cc4)c23)COC1` [compound 113, 3-(3-methyloxetan-3-yl)-4-[4-(morpholin-4-yl)phenyl]-1-phenyl-1H-pyrazolo[3,4-b]pyridine-6-carboxylic acid], the “% Activation” value is listed as 277% and the EC50 is 1.17 µM.
For `CC(C)c1nn(-c2ccc(F)cc2)c2nc(C(=O)O)cc(N3CC(N4CCC(N(C)C5COC5)CC4)C3)c12` [compound 758, 1-(4-fluorophenyl)-4-(3-{4-[methyl(oxetan-3-yl)amino]piperidin-1-yl}azetidin-1-yl)-3-(propan-2-yl)-1H-pyrazolo[3,4-b]pyridine-6-carboxylic acid], the “% Activation” value turned out to be 139.5% and the half-maximal effective concentration (EC50) was 0.812 µM.
The matching figures for `CN(C1CCN(c2cc(C(=O)O)nc3c2c(C2CCC2)nn3-c2ccccc2)CC1)C1COC1` [compound 735, 3-cyclobutyl-4-{4-[methyl(oxetan-3-yl)amino]piperidin-1-yl}-1-phenyl-1H-pyrazolo[3,4-b]pyridine-6-carboxylic acid]: 437.7% and 0.225 µM.
On to `O=C(O)c1cc(N2CCN(C(=O)CN3CCOCC3)CC2)c2c(C3CCC3)nn(-c3ccccc3)c2n1` [compound 570, 3-cyclobutyl-4-{4-[(morpholin-4-yl)acetyl]piperazin-1-yl}-1-phenyl-1H-pyrazolo[3,4-b]pyridine-6-carboxylic acid], for which the “% Activation” value stood at 254% and the EC50 came to 3.33 µM.
With `CC(C)N1CCCN(c2cc(C(=O)O)nc3c2c(C2CCC2)nn3-c2ccccc2)CC1` [compound 691, 3-cyclobutyl-1-phenyl-4-[4-(propan-2-yl)-1,4-diazepan-1-yl]-1H-pyrazolo[3,4-b]pyridine-6-carboxylic acid], the “% Activation” value stood at 280.7% and the 50% effective concentration (EC50) came out at 5 µM.
The matching figures for `Cc1nn(-c2ccccc2)c2nc(C(=O)O)cc(-c3ccc(N4CCC(O)CC4)cc3)c12` [compound 144, 4-[4-(4-hydroxypiperidin-1-yl)phenyl]-3-methyl-1-phenyl-1H-pyrazolo[3,4-b]pyridine-6-carboxylic acid]: 338.4% and 2.62 µM.
The matching figures for `CCN(CC)CCCC1CCN(c2cc(C(=O)O)nc3c2c(C2CCC2)nn3-c2ccccc2)CC1` [compound 731, 3-cyclobutyl-4-{4-[3-(diethylamino)propyl]piperidin-1-yl}-1-phenyl-1H-pyrazolo[3,4-b]pyridine-6-carboxylic acid]: 399.5% and 0.0945 µM.
With `CN(CCN1CCOCC1)c1cc(C(=O)O)nc2c1c(C1CCC1)nn2-c1ccccc1` [compound 565, 3-cyclobutyl-4-{methyl[2-(morpholin-4-yl)ethyl]amino}-1-phenyl-1H-pyrazolo[3,4-b]pyridine-6-carboxylic acid], the “% Activation” value was 319.8% and the EC50 was determined as 1.93 µM.
For the compound `CN1CCCN(C(=O)CCN2CCN(c3cc(C(=O)O)nc4c3c(C3CCC3)nn4-c3ccccc3)CC2)CC1` [compound 717, 3-cyclobutyl-4-{4-[3-(4-methyl-1,4-diazepan-1-yl)-3-oxopropyl]piperazin-1-yl}-1-phenyl-1H-pyrazolo[3,4-b]pyridine-6-carboxylic acid], the “% Activation” value came to 124.6% and the EC50 was 5 µM.
The matching figures for `CN1CCN(CCC2CCN(c3cc(C(=O)O)nc4c3c(C3CCC3)nn4-c3ccccc3)CC2)CC1` [compound 695, 3-cyclobutyl-4-{4-[2-(4-methylpiperazin-1-yl)ethyl]piperidin-1-yl}-1-phenyl-1H-pyrazolo[3,4-b]pyridine-6-carboxylic acid]: 385.5% and 0.119 µM.
`O=C(O)c1cc(N2CCC[C@@H](O)C2)c2c(C3CCC3)nn(-c3ccccc3)c2n1` [compound 706, 3-cyclobutyl-4-[(3R)-3-hydroxypiperidin-1-yl]-1-phenyl-1H-pyrazolo[3,4-b]pyridine-6-carboxylic acid]: the “% Activation” value is given as 284.4% and the EC50 was determined as 0.488 µM.
`O=C(O)c1cc(OCC2CCOCC2)c2c(C3CCC3)nn(-c3ccc(F)cc3)c2n1` [compound 658, 3-cyclobutyl-1-(4-fluorophenyl)-4-[(oxan-4-yl)methoxy]-1H-pyrazolo[3,4-b]pyridine-6-carboxylic acid]: the “% Activation” value amounted to 345.9% and the EC50 came to 0.455 µM.
The matching figures for `COCC1(F)CCN(c2cc(C(=O)O)nc3c2c(C(C)C)nn3-c2ccc(F)cc2)CC1` [compound 669, 4-[4-fluoro-4-(methoxymethyl)piperidin-1-yl]-1-(4-fluorophenyl)-3-(propan-2-yl)-1H-pyrazolo[3,4-b]pyridine-6-carboxylic acid]: 315.5% and 0.795 µM.
